The values below come from patent US10722501B2 (BAYER AKTIENGESELLSCHAFT, priority 2016, dated 2020).

For the assay, the target named is T1, recombinant full-length human prolyl endopeptidase (PREP) (Homo sapiens, UniProt P48147).
T1 construct: To recombinant full-length human prolyl endopeptidase (PREP, R&D-Systems, 4308-SE); purchased R&D-Systems 4308-SE
T1 sequence (P48147 1-710): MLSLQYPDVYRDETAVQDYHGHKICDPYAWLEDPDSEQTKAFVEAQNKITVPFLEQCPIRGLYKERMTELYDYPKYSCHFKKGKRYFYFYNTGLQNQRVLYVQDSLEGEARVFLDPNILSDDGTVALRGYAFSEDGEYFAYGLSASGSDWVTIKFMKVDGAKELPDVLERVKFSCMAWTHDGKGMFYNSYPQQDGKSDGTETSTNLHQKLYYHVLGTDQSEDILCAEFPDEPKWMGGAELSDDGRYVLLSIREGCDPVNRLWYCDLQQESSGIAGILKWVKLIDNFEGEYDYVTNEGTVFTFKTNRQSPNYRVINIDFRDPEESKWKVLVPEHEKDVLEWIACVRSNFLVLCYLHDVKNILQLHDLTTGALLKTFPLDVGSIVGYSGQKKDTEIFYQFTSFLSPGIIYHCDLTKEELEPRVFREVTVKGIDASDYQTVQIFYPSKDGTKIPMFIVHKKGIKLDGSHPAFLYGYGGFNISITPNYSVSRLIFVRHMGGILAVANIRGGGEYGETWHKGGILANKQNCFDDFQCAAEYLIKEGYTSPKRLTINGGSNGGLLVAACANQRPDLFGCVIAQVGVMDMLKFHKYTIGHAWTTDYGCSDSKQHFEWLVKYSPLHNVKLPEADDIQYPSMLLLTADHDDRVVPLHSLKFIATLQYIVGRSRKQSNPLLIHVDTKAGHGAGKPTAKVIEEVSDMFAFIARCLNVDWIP
The assay is described as follows: Biochemical human prolyl endopeptidase (PREP) assay with fluorescently labelled substrate. To be noted: substrate Z-Gly-Pro-AMC 50 μM, 32° C., 60 min; some as mean values from multiple independent determinations. How it is done:
B-1 Biochemical Human Prolyl Endopeptidase (PREP) Assay for Identification of Inhibitors of PREP Activity Using a Fluorescently Labelled Substrate Principle of the Assay:
The enzymatic conversion of the fluorescent peptide substrate was observed on the basis of the measurement of the fluorescence intensity. The enzyme activity was determined by the ascertaining of the initial slope in the increase in fluorescence. Compounds that inhibit PREP were identified on the basis of the decrease in the initial slope compared to a reaction mixture without test compound.
Determination of Activity:
IC50 values were determined by the plotting of the percentage PREP activity against the concentration of the test substance by interpolation.
To recombinant full-length human prolyl endopeptidase (PREP, R&D-Systems, 4308-SE; final concentration, for example, 0.4 nM, volume: 25 μl) in reaction buffer (50 mM Tris-HCl, pH 7.5; 150 mM NaCl; 0.13% BSA, 5 mM EDTA, 3 mM GSH, 0.005% Brij-35) was added a test compound (in DMSO, in an appropriate final concentration range from 1 nM to 30 μM, volume: 1 μl) in a well of a 384-well microtitre plate. The reaction was initiated by adding the substrate Z-Gly-Pro-AMC (final concentration 50 μM; Z=carboxybenzyl; AMC=7-amino-4-methylcoumarin, volume: 25 μl). The progress of the PREP reaction was observed by measuring the fluorescence intensity in a Tecan SAFIRE II plate spectrophotometer at 32° C. over a period of 60 min (excitation wavelength: 360 nm, emission wavelength: 465 nm).
Table B-1 below collates the IC50 values thus obtained from the human prolyl endopeptidase assay for individual working examples of the invention (some as mean values from multiple independent individual determinations).
As for `O=C(C1CCCc2nn(Cc3ccc(C(F)(F)F)nc3)c(=O)n21)N1CC[C@@H](F)C1` (mixture of isomers) [Example 100, (5RS)-5-{[(3R)-3-Fluoropyrrolidin-1-yl]carbonyl}-2-{[6-(trifluoromethyl)pyridin-3-yl]methyl}-5,6,7,8-tetrahydro[1,2,4]triazolo[4,3-a]pyridin-3(2H)-one], the IC50 came out at 7.9 nM.
`O=C(C1CCCc2nn(Cc3ccc(F)c(C(F)(F)F)c3)c(=O)n21)N1CC[C@H](O)C1` (mixture of isomers) [Example 101, (5RS)-2-[4-Fluoro-3-(trifluoromethyl)benzyl]-5-{[(3S)-3-hydroxypyrrolidin-1-yl]carbonyl}-5,6,7,8-tetrahydro[1,2,4]triazolo[4,3-a]pyridin-3(2H)-one]: the IC50 stood at 3.05 nM.
As for `Cc1ccc(Cn2nc3n(c2=O)C(C(=O)N2CCC4(C2)CC4(F)F)CCC3)cc1` (mixture of isomers) [Example 128, (5S)-{[(3RS)-1,1-Difluoro-5-azaspiro[2.4]hept-5-yl]carbonyl}-2-(4-methylbenzyl)-5,6,7,8-tetrahydro[1,2,4]triazolo[4,3-a]pyridin-3(2H)-one], the IC50 was found to be 46 nM.
As to `Cc1ccc(Cn2nc3n(c2=O)C(C(=O)N2CCC(F)(CO)C2)CCC3)cc1` (mixture of isomers) [Example 147, (5S)-5-{[(3RS)-3-Fluoro-3-(hydroxymethyl)pyrrolidin-1-yl]carbonyl}-2-(4-methylbenzyl)-5,6,7,8-tetrahydro[1,2,4]triazolo[4,3-a]pyridin-3(2H)-one], the IC50 came out at 70 nM.
Consider `O=C(C1CCc2nn(Cc3ccc(Cl)nc3)c(=O)n21)N1CC[C@H](F)C1` (mixture of isomers) [Example 163, (5RS)-2-[(6-Chloropyridin-3-yl)methyl]-5-{[(3S)-3-fluoropyrrolidin-1-yl]carbonyl}-2,5,6,7-tetrahydro-3H-pyrrolo[2,1-c][1,2,4]triazol-3-one], for which the IC50 was found to be 2.8 nM.
As for `O=C(C1CCc2nn(Cc3ccc(C(F)(F)F)nc3)c(=O)n21)N1CC[C@H](F)C1` (mixture of isomers) [Example 164, (5RS)-5-{[(3S)-3-Fluoropyrrolidin-1-yl]carbonyl}-2-{[6-(trifluoromethyl)pyridin-3-yl]methyl}-2,5,6,7-tetrahydro-3H-pyrrolo[2,1-c][1,2,4]triazol-3-one], the IC50 worked out at 3.7 nM.
In the case of `O=C(C1CCc2nn(Cc3ccc(F)c(Cl)c3)c(=O)n21)N1CC[C@H](F)C1` (mixture of isomers) [Example 165, (5RS)-2-(3-Chloro-4-fluorobenzyl)-5-{[(3S)-3-fluoropyrrolidin-1-yl]carbonyl}-2,5,6,7-tetrahydro-3H-pyrrolo[2,1-c][1,2,4]triazol-3-one], the IC50 was found to be 0.89 nM.
On to `O=C(C1CCc2nn(Cc3ccnc(C(F)(F)F)c3F)c(=O)n21)N1CC[C@H](F)C1` (mixture of isomers) [Example 178, (5RS)-5-{[(3S)-3-Fluoropyrrolidin-1-yl]carbonyl}-2-{[3-fluoro-2-(trifluoromethyl)pyridin-4-yl]methyl}-2,5,6,7-tetrahydro-3H-pyrrolo[2,1-c][1,2,4]triazol-3-one], for which the 50% inhibitory concentration (IC50) turned out to be 1.3 nM.
Next, `O=C([C@@H]1CCC(O)c2nn(Cc3ccc(C(F)(F)F)nc3)c(=O)n21)N1CC[C@H](F)C1` (mixture of isomers) [Example 275, (5S,8RS)-5-{[(3S)-3-Fluoropyrrolidin-1-yl]carbonyl}-8-hydroxy-2-{[6-(trifluoromethyl)pyridin-3-yl]methyl}-5,6,7,8-tetrahydro[1,2,4]triazolo[4,3-a]pyridin-3(2H)-one]: 1.15 nM.
The same measure for `O=C([C@@H]1CCC(O)c2nn(Cc3cncc(Cl)c3)c(=O)n21)N1CC[C@H](F)C1` (mixture of isomers) [Example 279, (5S,8RS)-2-[(5-Chloropyridin-3-yl)methyl]-5-{[(3S)-3-fluoropyrrolidin-1-yl]carbonyl}-8-hydroxy-5,6,7,8-tetrahydro[1,2,4]triazolo[4,3-a]pyridin-3(2H)-one]: 0.485 nM; for `Cc1cc(Cn2nc3n(c2=O)C(C(=O)N2CC[C@H](F)C2)CCC3)on1` (mixture of isomers) [Example 416, (5RS)-5-{[(3S)-3-Fluoropyrrolidin-1-yl]carbonyl}-2-[(3-methyl-1,2-oxazol-5-yl)methyl]-5,6,7,8-tetrahydro[1,2,4]triazolo[4,3-a]pyridin-3(2H)-one]: 3.4 nM; for `O=C([C@@H]1CCC(O)c2nn(Cc3ccc(Cl)cn3)c(=O)n21)N1CC[C@H](F)C1` (mixture of isomers) [Example 547, (5S,8RS)-2-[(5-Chloropyridin-2-yl)methyl]-5-{[(3S)-3-fluoropyrrolidin-1-yl]carbonyl}-8-hydroxy-5,6,7,8-tetrahydro[1,2,4]triazolo[4,3-a]pyridin-3(2H)-one]: 0.43 nM.
As for `O=C([C@@H]1CCC(O)c2nn(Cc3ncc(F)cc3F)c(=O)n21)N1CC[C@H](F)C1` (mixture of isomers) [Example 585, (5S,8SR)-2-[(3,5-Difluoropyridin-2-yl)methyl]-5-{[(3S)-3-fluoropyrrolidin-1-yl]carbonyl}-8-hydroxy-5,6,7,8-tetrahydro[1,2,4]triazolo[4,3-a]pyridin-3(2H)-one], the IC50 turned out to be 0.43 nM.
Turning to `O=C(C1CCCc2nn(Cc3ccc(C(F)(F)F)cc3)c(=O)n21)N1CCCC1` (racemic) [Example 1, (5RS)-5-(Pyrrolidin-1-ylcarbonyl)-2-[4-(trifluoromethyl)benzyl]-5,6,7,8-tetrahydro[1,2,4]triazolo[4,3-a]pyridin-3(2H)-one], the IC50 turned out to be 1.75 nM.
As for `CC(C)(C)c1ccc(Cn2nc3n(c2=O)C(C(=O)N2CCCC2)CCC3)cc1` (racemic) [Example 2, (5RS)-2-(4-tert-Butylbenzyl)-5-(pyrrolidin-1-ylcarbonyl)-5,6,7,8-tetrahydro[1,2,4]triazolo[4,3-a]pyridin-3(2H)-one], the IC50 amounted to 15.4 nM.
For `CC(c1ccc(Cl)cc1)n1nc2n(c1=O)C(C(=O)N1CCCC1)CCC2` (racemic) [Example 3, (5RS)-2-[(1 RS)-1-(4-Chlorophenyl)ethyl]-5-(pyrrolidin-1-ylcarbonyl)-5,6,7,8-tetrahydro[1,2,4]triazolo[4,3-a]pyridin-3(2H)-one], the IC50 is 6 nM.
With `CS(=O)(=O)c1ccc(Cn2nc3n(c2=O)C(C(=O)N2CCCC2)CCC3)cc1` (racemic) [Example 6, (5RS)-2-[4-(Methylsulphonyl)benzyl]-5-(pyrrolidin-1-ylcarbonyl)-5,6,7,8-tetrahydro[1,2,4]triazolo[4,3-a]pyridin-3(2H)-one], the IC50 amounted to 120 nM.
Take `O=C(C1CCCc2nn(Cc3ccc(OC(F)F)cc3)c(=O)n21)N1CCCC1` (racemic) [Example 7, (5RS)-2-[4-(Difluoromethoxy)benzyl]-5-(pyrrolidin-1-ylcarbonyl)-5,6,7,8-tetrahydro[1,2,4]triazolo[4,3-a]pyridin-3(2H)-one]: the IC50 was determined as 8 nM.
As to `Cc1cccc(Cn2nc3n(c2=O)C(C(=O)N2CCCC2)CCC3)c1` (racemic) [Example 8, (5RS)-2-(3-Methylbenzyl)-5-(pyrrolidin-1-ylcarbonyl)-5,6,7,8-tetrahydro[1,2,4]triazolo[4,3-a]pyridin-3(2H)-one], the IC50 is 0.99 nM.
In the case of `Cc1noc(-c2ccc(Cn3nc4n(c3=O)C(C(=O)N3CCCC3)CCC4)cc2)n1` (racemic) [Example 9, (5RS)-2-[4-(3-Methyl-1,2,4-oxadiazol-5-yl)benzyl]-5-(pyrrolidin-1-ylcarbonyl)-5,6,7,8-tetrahydro[1,2,4]triazolo[4,3-a]pyridin-3(2H)-one], the IC50 was 39 nM.
Turning to `Cc1nc(-c2ccc(Cn3nc4n(c3=O)C(C(=O)N3CCCC3)CCC4)cc2)no1` (racemic) [Example 10, (5RS)-2-[4-(5-Methyl-1,2,4-oxadiazol-3-yl)benzyl]-5-(pyrrolidin-1-ylcarbonyl)-5,6,7,8-tetrahydro[1,2,4]triazolo[4,3-a]pyridin-3(2H)-one], the IC50 came to 24 nM.

The term IC50 denotes the concentration that gives 50% inhibition.
